Data reported in patent US20240076609A1, “COMPOSITIONS AND METHODS FOR CULTURING AND EXPANDING CELLS” (LIFE TECHNOLOGIES CORPORATION, priority 2017, published 2024).
Values joined by “and” are separate entries in the source; they are usually repeats but may differ in a detail not shown here. Equal entries are not always repeated. “Also recorded” adds a separate entry of the source.

Tests used:
Non-naïve T cells = experiment: Expansion of non-naïve T cells with 2-DG; assay type: cell-based, human; conditions: 4 mM 2-DG
Procedure: T cell activation and expansion: T cells (seeding density 1×10^6 vc/mL) were activated with DYNABEADS® Human T-Expander CD3/CD28 (Thermo Fisher Scientific, Cat. No. 11141D) at a ratio of 3 beads per T cell and cultured in serum-free medium, animal origin free medium. T cells were counted on days 5, 7, 10, and 12 on a Vi-CELL XR analyzer (Beckman Coulter, Indianapolis IN) and fed with or without 2-DG (0.25 mM, 0.5 mM, 1 mM, 2 mM, and 4 mM) and 5% human AB serum to a density of 5×10^5 vc/mL on days 3, 5, and 7 and 1×10^6 vc/mL on day 10. For some studies, CD8+ and CD4+ T cells were isolated from PBMCs by negative selection using Untouched Human CD8+ and CD4+ T Cells Kits. Naïve and non-naïve T cells were isolated from enriched T cells by positive selection using CD45RA nanobeads (Miltenyi). […]

Pan CD3+ T cells = experiment: CD8+/CD4+ phenotype by flow cytometry after 10 days with 2-DG; assay type: cell-based, human; conditions: for CD8+ T cell population (frequency): day 10
Procedure: Phenotype: Primary human T cells were expanded for 10 days with and without 2-DG and 5% human AB serum. DYNABEADS® were removed from 2×10^6 cells by magnetic separation. Surface staining was performed with antibodies against CD3 (Invitrogen, Cat. No. CD0329), CD4 (Molecular Probes, Cat. No. A15858), CD8 (Invitrogen, Cat. No. MHCD0828). Flow cytometric analysis was performed on a Gallios flow cytometer and Kaluza software (Beckman Coulter, Indianapolis IN). Phenotype: Primary human T cells were expanded for 10 days with and without 2-DG and 5% human AB serum. DYNABEADS® were removed from 2×10^6 cells by magnetic separation. Surface staining was performed with antibodies against CD3 (Invitrogen, Cat. No. CD0329), CD4 (Molecular Probes, Cat. No. A15858), CD8 (Invitrogen, Cat. No. MHCD0828). Flow cytometric analysis was performed on a Gallios flow cytometer and Kaluza software (Beckman Coulter, Indianapolis IN).

Primary human T cells = experiment: CD8+/CD4+ phenotype with 2-DG and CD Lipid Concentrate 1 or 2; assay type: cell-based
Procedure: FIGS. 48 and 49 represent the data from Tables 42 and 43 which depicts the gating strategy for differentiation phenotyping. T cells expanded for 10 days were stained with antibodies against CD3, CD4, and CD8. Flow cytometric analysis was performed in a Beckman-Coulter Gallios analyzer.
Phenotype: Primary human T cells were expanded for 10 days with and without 2-DG and 5% human AB serum. DYNABEADS® were removed from 2×10^6 cells by magnetic separation. Surface staining was performed with antibodies against CD3 (Invitrogen, Cat. No. CD0329), CD4 (Molecular Probes, Cat. No. A15858), CD8 (Invitrogen, Cat. No. MHCD0828). Flow cytometric analysis was performed on a Gallios flow cytometer and Kaluza software (Beckman Coulter, Indianapolis IN).
FIGS. 48 and 49 represent the fold increase in CD8:CD4 ratio compared to day 0.

[1] = 0.25 mM 2-DG, Day 10 of culture
[2] = 0.25 mM 2-DG, Day 10, single donors
[3] = 0.5 mM 2-DG, Day 10, single donors

## O=CC[C@@H](O)[C@H](O)[C@H](O)CO [2-DG, 2-Deoxy-D-Glucose]
Non-naïve T cells; 12 days
  effect of 2-DG on growth of non-naïve T cells: did not affect growth of either cell type; also recorded: modest effect
Non-naïve T cells; day 5
  Cultured Non-Naïve T Cell Population Doublings: −0.24
Non-naïve T cells; day 7
  Cultured Non-Naïve T Cell Population Doublings: 1.25
Non-naïve T cells; day 10
  Cultured Non-Naïve T Cell Population Doublings: 3.37
Non-naïve T cells; day 12
  Cultured Non-Naïve T Cell Population Doublings: 4.64
Pan CD3+ T cells; [1]
  % CD4+: 39.21% and 32.39% and 22.68%
  % CD8+: 53.46% and 63.2% and 70.32%
Pan CD3+ T cells; 0.25 mM 2-DG, Day 10 of culture, average
  % Ratios (CD8+/CD4+) (Avg): 2.1
Pan CD3+ T cells; 0.25 mM 2-DG, Day 10 vs Day 0 CD8+/CD4+ ratio
  Fold Increase compared to Baseline: 3.02 and 2.49 and 3.99
Pan CD3+ T cells; 0.25 mM 2-DG, Day 10
  % Ratios (CD8+/CD4+) (Avg): 2.1
Pan CD3+ T cells; [2]
  % CD4+: 39.21% and 32.39% and 22.68%
  % CD8+: 53.46% and 63.2% and 70.32%
  % Ratios (CD8+/CD4+): 1.36 and 1.95 and 3.10
Pan CD3+ T cells; 0.25 mM 2-DG, Day 10 vs Day 0
  Fold Increase (Avg): 3.2
Pan CD3+ T cells; 0.25 mM 2-DG, Day 10 vs Day 0, single donors
  Fold Increase in CD8+ to CD4+ ratio: 3.02 and 2.49 and 3.99
Pan CD3+ T cells; 0.25 mM and 0.5 mM 2-DG, single donor
  CD8+ T cell population (frequency): 48%
Pan CD3+ T cells; 0.5 mM 2-DG, Day 10 of culture
  % CD4+: 37.08% and 29.85% and 23.85%
  % CD8+: 55.04% and 66.57% and 68.64%
  % Ratios (CD8+/CD4+): 1.48 and 2.23 and 2.88
Pan CD3+ T cells; 0.5 mM 2-DG, Day 10 of culture, average
  % Ratios (CD8+/CD4+) (Avg): 2.2
Pan CD3+ T cells; 0.5 mM 2-DG, Day 10 vs Day 0 CD8+/CD4+ ratio
  Fold Increase compared to Baseline: 3.29 and 2.85 and 3.7
Pan CD3+ T cells; 0.5 mM 2-DG, Day 10
  % Ratios (CD8+/CD4+) (Avg): 2.2
Pan CD3+ T cells; [3]
  % CD4+: 37.08% and 29.85% and 23.85%
  % CD8+: 55.04% and 66.57% and 68.64%
  % Ratios (CD8+/CD4+): 1.48 and 2.23 and 2.88
Pan CD3+ T cells; 0.5 mM 2-DG, Day 10 vs Day 0
  Fold Increase (Avg): 3.6
Pan CD3+ T cells; 0.5 mM 2-DG, Day 10 vs Day 0, single donors
  Fold Increase in CD8+ to CD4+ ratio: 3.29 and 2.85 and 3.7
Pan CD3+ T cells; 1 mM 2-DG, Day 10, Table 26
  % CD4+: 50%
  % CD8+: 42%
  % Ratios (CD8+/CD4+): 0.85
Pan CD3+ T cells; 1 mM 2-DG, Day 10 vs Day 0, Table 26
  Fold Increase compared to Baseline: 2.18
Pan CD3+ T cells; 2 mM 2-DG, Day 10, Table 26
  % CD4+: 42%
  % CD8+: 50%
  % Ratios (CD8+/CD4+): 1.18
Pan CD3+ T cells; 2 mM 2-DG, Day 10 vs Day 0, Table 26
  Fold Increase compared to Baseline: 3.01
Pan CD3+ T cells; 4 mM 2-DG, 10 days
  Fold Increase in CD8+ to CD4+ ratio: 4.1 fold
Pan CD3+ T cells; 4 mM 2-DG, Day 10, Table 26
  % CD4+: 23%
  % CD8+: 63%
  % Ratios (CD8+/CD4+): 2.80
Pan CD3+ T cells; 4 mM 2-DG, Day 10 vs Day 0, Table 26
  Fold Increase compared to Baseline: 7.15
Pan CD3+ T cells; 4 mM 2-DG
  CD8+ T cell population (frequency): 63%
Primary human T cells; 2-DG with CLC1
  fold increase in CD8:CD4 ratio compared to day 0: 1.6 fold
Primary human T cells; 2-DG with CLC2
  fold increase in CD8:CD4 ratio compared to day 0: 1.4 fold
